Blank lines part the entries; values can stand above or below the compound they belong to.
Experiments:
[1] = Solubility test of folate precipitates suspended in water at pH 7.0, filtered, insoluble solid weighed; assay type: physicochemical
Text: In the parent application is was noticed that when soluble metal salts were mixed with folic acid there would be a precipitate forming after the addition of the metal salt. This precipitate was isolated and its solubility measured. According to the following procedure: The precipitates were suspended in water and the pH was adjusted to 7.0 with dilute HCl. […] The solids were dried and weighed to determine the mass of insoluble product. Very similar molar amounts of folic acid are used in this procedure.

[2] = Sheep serum folic acid concentrations after feeding test articles
Text: The animals were separated into groups and housed in a barn with access to a pasture. The dosing regime was as follows. […] The sheep were fed the test feeds for fourteen (14) days.
Example 22 is a sheep study using the protocol of Example 20 but with the Mn and iron mixtures of Example 5 and 7, respectively. […] In this test the ewes were fed the concentrate metal folate mixture dried without any carrier but mixed on ground corn for feeding.
The liquid mixtures were then sprayed directly on ground corn.

[3] = suspended in water at pH 7.0, stirred, filtered, solid dried and weighed

Insoluble % ([1]; 15 min, pH 7): 0.33%
solubility at pH of 7 ([1]; pH 7): soluble
Compound: Nc1nc2ncc(CNc3ccc(C(=O)N[C@@H](CCC(=O)O)C(=O)O)cc3)nc2c(=O)[nH]1 [Folic Acid, folic acid, reference compound]

Compound: Iron folate
Insoluble Mass ([1]; suspended in 100 mL water, pH adjusted to 7.0, stirred, filtered, solid dried and weighed, about 3 g folate equivalents (6.8 mmols)): 3.74 g
Insoluble % [1, 3]: 96%
Insoluble % ([1]; suspended in water at pH 7.0, stirred, filtered, solid dried and weighed, listed as Iron folate): 96%

Compound: Zinc Folate Mixture [Example 1]
serum folic acid concentrations ([2]; 30 mg folic acid equivalent per head per day mixed with ground corn, 14 days, pre vs post treatment (FIGS. 1-4), mean or median): increased the greatest
blood serum levels of folic acid compared to folic acid alone ([2]; comparison with folic acid alone): performed better than folic acid alone

Compound: Zinc folate
Insoluble % [1, 3]: 99%
Insoluble % ([1]; suspended in water at pH 7.0, stirred, filtered, solid dried and weighed, listed as Zinc folate): 99%
